The source made the active and inactive calls. The rule behind the calls is not given here.
Columns and labels:
[1] = Cytotoxicity against human MRC5 cells assessed as reduction in cell viability incubated for 72 hrs by sulforhodamine B assay; assay type: toxicity, cell-based
[2] = test system: MDA-MB-231; assay: Antiproliferative activity against human MDA-MB-231 cells assessed as reduction in cell viability incubated for 72 hrs by sulforhodamine B assay; assay type: functional, cell-based; settings: MDA-MB-231, 72 h
[3] = Selectivity index, ratio of IC50 for cytotoxicity against human MRC5 cells to IC50 for antiproliferative activity against human MDA-MB-231 cells; assay type: toxicity, cell-based; settings: MRC5 cells and MDA-MB-231 cells, read-out: Ratio IC50
[4] = target: Signal transducer and activator of transcription 3 (Homo sapiens) (UniProt P40763); assay: Inhibition of STAT3 phosphorylation at Y705 residue in human MDA-MB-231 cells assessed as decrease in phosphorylated STAT3 level at 5 uM incubated for 24 hrs by Western blot analysis; assay type: cell-based
Signal transducer and activator of transcription 3 (Homo sapiens), sequence (P40763 whole entry): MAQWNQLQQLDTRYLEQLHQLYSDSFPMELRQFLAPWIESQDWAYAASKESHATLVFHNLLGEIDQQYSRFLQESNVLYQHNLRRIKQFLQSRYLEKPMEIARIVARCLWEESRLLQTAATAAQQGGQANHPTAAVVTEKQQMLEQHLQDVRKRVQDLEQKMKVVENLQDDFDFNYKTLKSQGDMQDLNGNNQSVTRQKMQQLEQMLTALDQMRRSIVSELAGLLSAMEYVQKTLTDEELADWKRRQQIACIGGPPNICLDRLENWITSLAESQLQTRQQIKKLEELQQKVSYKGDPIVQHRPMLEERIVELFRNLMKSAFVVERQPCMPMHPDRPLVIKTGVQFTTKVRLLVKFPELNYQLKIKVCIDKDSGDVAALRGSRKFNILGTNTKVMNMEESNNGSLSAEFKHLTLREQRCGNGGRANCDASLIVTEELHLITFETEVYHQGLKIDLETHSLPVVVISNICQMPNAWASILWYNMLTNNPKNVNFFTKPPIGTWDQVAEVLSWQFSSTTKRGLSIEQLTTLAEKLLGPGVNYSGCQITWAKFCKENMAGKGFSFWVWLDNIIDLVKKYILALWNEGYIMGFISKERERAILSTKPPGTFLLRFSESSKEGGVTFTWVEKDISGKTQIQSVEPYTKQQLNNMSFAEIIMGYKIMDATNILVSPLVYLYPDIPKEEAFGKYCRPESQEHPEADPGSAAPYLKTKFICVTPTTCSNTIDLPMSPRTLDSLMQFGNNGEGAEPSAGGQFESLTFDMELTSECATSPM

[5] = Antiproliferative activity against docetaxel-resistant human MDA-MB-231-DTR cells assessed as reduction in cell viability incubated for 72 hrs by sulforhodamine B assay; assay type: functional, cell-based; settings: MDA-MB-231, 72 h
[6] = target: Signal transducer and activator of transcription 3 (Homo sapiens) (UniProt P40763); assay: Binding affinity to STAT3 in docetaxel-resistant human MDA-MB-231-DTR cells at 20 uM incubated for 1 hrs by streptavidin bead based pull-down assay; assay type: cell-based
[7] = test system: MDA-MB-231; assay: Antiproliferative activity against human MDA-MB-231 cells assessed as reduction in cell viability incubated for 72 hrs by MTT assay; assay type: functional, cell-based; settings: MDA-MB-231, 72 h
[8] = test system: MDA-MB-231; assay: Antitumor activity against docetaxel-resistant human MDA-MB-231-DTR cells xenografted in BALB/c mouse assessed as tumor growth inhibition at 5 mg/kg, ip daily for 12 days; assay type: functional, organism-based; settings: time 12.0 day
[9] = Antiproliferative activity against […] cells assessed as reduction in cell viability incubated for 72 hrs by MTT assay; assay type: functional, cell-based

| SMILES | IC50 at 72 h [1] [µM] | IC50 [2] [µM] | selectivity ratio [3] | further results |
| --- | --- | --- | --- | --- |
| O=C(NCCc1c[nH]c2ccccc12)c1cc2c([nH]c3ccccc32)c(C(=O)c2cccc(Br)c2)n1 | > 50 | > 50 | – | – |
| O=C(NCCc1c[nH]c2ccccc12)c1cc2c([nH]c3ccccc32)c(-c2ccccc2)n1 | > 50 | 19.2 | > 2.6 | – |
| CC(=O)c1nc(C(=O)Nc2ccc(C(F)(F)F)cc2)cc2c1[nH]c1ccccc12 | > 50 | > 50 | – | – |
| O=C(NCCc1c[nH]c2ccccc12)c1cc2c([nH]c3ccccc32)c(C(=O)c2ccc(O)cc2)n1 | 39.3 | 6.82 | 5.76 | inhibition [4]: Active; IC50 [5]: 6.62 µM |
| CC(=O)c1nc(C(=O)NCc2ccc(C#N)cc2)cc2c1[nH]c1ccccc12 | > 50 | > 50 | – | – |
| Cc1ccc(-c2nc(C(=O)NCCc3c[nH]c4ccccc34)cc3c2[nH]c2ccccc23)cc1 | 42 | 6.89 | 6.1 | – |
| CC(=O)c1nc(C(=O)NCCc2c[nH]c3ccc(Cl)cc23)cc2c1[nH]c1ccccc12 | 36.5 | 5.94 | 6.14 | – |
| CC(=O)c1nc(C(=O)NCCc2ccccc2)cc2c1[nH]c1ccccc12 | > 50 | > 50 | – | – |
| CC(=O)c1nc(C(=O)NCCCN(C)C)cc2c1[nH]c1ccccc12 | > 50 | 11.3 | > 4.41 | – |
| CC(=O)c1nc(C(=O)NCCc2ccc(O)cc2)cc2c1[nH]c1ccccc12 | > 50 | > 50 | – | – |
| O=C(NCCc1c[nH]c2ccccc12)c1cc2c([nH]c3ccccc32)c(-c2ccc(Br)cc2)n1 | 48.8 | 7.06 | 6.19 | inhibition [4]: Active; IC50 [5]: 6.81 µM |
| CC(=O)c1nc(C(=O)NCc2c[nH]c3ccccc23)cc2c1[nH]c1ccccc12 | > 50 | 14.3 | > 3.51 | – |
| CC(=O)c1nc(C(=O)N(C)C)cc2c1[nH]c1ccccc12 | > 50 | > 50 | – | – |
| CC(=O)c1nc(C(=O)NCCCO)cc2c1[nH]c1ccccc12 | 41.2 | 16.5 | 2.5 | – |
| CC(=O)c1nc(C(=O)NCc2ccccc2)cc2c1[nH]c1ccccc12 | > 50 | > 50 | – | – |
| O=C(NCCc1c[nH]c2ccccc12)c1cc2c([nH]c3ccccc32)c(C(=O)c2ccccc2)n1 | 31.9 | 21.2 | 1.5 | – |
| CC(=O)c1nc(C(=O)Nc2ccc3[nH]ccc3c2)cc2c1[nH]c1ccccc12 | 48.2 | 6.98 | 6.91 | – |
| CCCCNC(=O)c1cc2c([nH]c3ccccc32)c(C(C)=O)n1 | > 50 | > 50 | – | – |
| CNC(=O)c1cc2c([nH]c3ccccc32)c(C(C)=O)n1 | > 50 | > 50 | – | – |
| CC(=O)c1nc(C(=O)N(Cc2ccccc2)Cc2ccccc2)cc2c1[nH]c1ccccc12 | > 50 | 20.8 | > 2.4 | – |
| O=C(NCCc1c[nH]c2ccccc12)c1cc2c([nH]c3ccccc32)c(C(=O)c2ccc(Cl)cc2)n1 | > 50 | 14.7 | > 3.4 | – |
| CC(=O)c1nc(C(=O)OCCc2c[nH]c3ccccc23)cc2c1[nH]c1ccccc12 | 38.3 | 9.52 | 4.02 | IC50 [5]: 8.48 µM |
| COc1ccc(NC(=O)c2cc3c([nH]c4ccccc43)c(C(C)=O)n2)cc1 | > 50 | > 50 | – | – |
| CC(=O)c1nc(C(=O)NCc2cccc(O)c2)cc2c1[nH]c1ccccc12 | > 50 | 27.7 | > 1.81 | – |
| CC(=O)c1nc(C(=O)NCc2ccc(O)cc2)cc2c1[nH]c1ccccc12 | > 50 | 3.51 | > 14.2 | IC50 [5]: 3.66 µM |
| COc1ccc(CCNC(=O)c2cc3c([nH]c4ccccc43)c(C(C)=O)n2)cc1 [MARINACARBOLINE A] | > 50 | > 50 | – | – |

| SMILES | IC50 at 72 h [1] [µM] | IC50 [2] [µM] | selectivity ratio [3] | further results |
| --- | --- | --- | --- | --- |
| CC(=O)c1nc(C(=O)Nc2ccccc2)cc2c1[nH]c1ccccc12 | > 50 | > 50 | – | – |
| CCCN(CCC)C(=O)c1cc2c([nH]c3ccccc32)c(C(C)=O)n1 | > 50 | > 50 | – | – |
| O=C(CCCC[C@@H]1SC[C@@H]2NC(=O)N[C@@H]21)NCCn1cc(COc2ccc3[nH]c4c(C(=O)c5ccc(Br)cc5)nc(C(=O)NCCc5c[nH]c6ccccc56)cc4c3c2)nn1 | – | – | – | Activity [6]: Active |
| CC(=O)c1nc(C(=O)NCc2ccc(F)cc2)cc2c1[nH]c1ccccc12 | > 50 | 24.7 | > 2.02 | – |
| O=C(NCc1ccc(O)cc1)c1cc2c([nH]c3ccccc32)c(C(=O)c2ccc(O)cc2)n1 | > 50 | > 50 | – | – |
| O=C(NCc1ccc(O)cc1)c1cc2c([nH]c3ccccc32)c(C(=O)c2ccc(Br)cc2)n1 | > 50 | > 50 | – | – |
| CC(=O)c1nc(C(=O)O)cc2c1[nH]c1ccccc12 | > 50 | > 50 | – | – |
| COc1cc([C@@H]2c3cc4c(cc3[C@@H](O[C@@H]3O[C@@H]5CO[C@@H](C)O[C@H]5[C@H](O)[C@H]3O)[C@H]3COC(=O)[C@H]23)OCO4)cc(OC)c1O [ETOPOSIDE] | 13.5 | 3.66 | 3.68 | – |
| O=C(NCCc1c[nH]c2ccccc12)c1cc2c([nH]c3ccccc32)c(-c2ccc(O)cc2)n1 | 46.3 | 5.68 | 8.15 | – |
| CC(=O)c1nc(C(=O)NCCc2c[nH]c3ccccc23)cc2c1[nH]c1ccccc12 [MARINACARBOLINE D] | 27.2 | 7.71 | 3.53 | IC50 [5]: 8.21 µM |
| CC(=O)c1nc(C(=O)NC(C)C)cc2c1[nH]c1ccccc12 | > 50 | 37.3 | > 1.34 | – |
| COc1ccc2[nH]cc(CCNC(=O)c3cc4c([nH]c5ccccc54)c(C(C)=O)n3)c2c1 | 39.3 | 10.8 | 3.62 | – |
| CC(=O)c1nc(C(=O)NCCCc2c[nH]c3ccccc23)cc2c1[nH]c1ccccc12 | > 50 | > 50 | – | – |
| Cc1ccc(C(=O)c2nc(C(=O)NCCc3c[nH]c4ccccc34)cc3c2[nH]c2ccccc23)cc1 | 41.2 | 8.29 | 4.98 | – |
| CC(=O)c1nc(C(=O)NCc2ccc3[nH]ccc3c2)cc2c1[nH]c1ccccc12 | > 50 | 14.9 | > 3.36 | – |
| CC(=O)c1nc(C(=O)NCc2ccc(N)cc2)cc2c1[nH]c1ccccc12 | > 50 | 16.3 | > 3.07 | IC50 [5]: 15.5 µM |
| COC(=O)c1cc2c([nH]c3ccccc32)c(C(C)=O)n1 | > 50 | > 50 | – | – |
| CC(=O)c1nc(C(=O)NCc2ccc(Cl)cc2)cc2c1[nH]c1ccccc12 | > 50 | 48.3 | > 1.04 | – |
| CC(=O)c1nc(C(=O)NCCc2c(C)[nH]c3ccccc23)cc2c1[nH]c1ccccc12 | 41.9 | 11.3 | 3.71 | – |
| O=C(NCCc1c[nH]c2ccccc12)c1cc2c([nH]c3ccccc32)c(C(=O)c2ccccc2Br)n1 | > 50 | > 50 | – | – |
| CC(=O)c1nc(C(=O)Nc2ccc(N)cc2)cc2c1[nH]c1ccccc12 | > 50 | 10.8 | > 4.63 | – |
| CC(=O)c1nc(C(=O)NCc2ccc(C(C)(C)C)cc2)cc2c1[nH]c1ccccc12 | > 50 | 34.2 | > 1.46 | – |
| CC(=O)O[C@H]1C(=O)[C@@]2(C)[C@H]([C@H](OC(=O)c3ccccc3)[C@]3(O)C[C@H](OC(=O)[C@H](O)[C@@H](NC(=O)c4ccccc4)c4ccccc4)C(C)=C1C3(C)C)[C@]1(OC(C)=O)CO[C@@H]1C[C@@H]2O [PACLITAXEL] | – | – | – | IC50 [7]: 0.07 µM; Activity [8]: inactive; IC50 [9]: 4.68 µM |
| CC(=O)c1nc(C(=O)NCc2ccccc2O)cc2c1[nH]c1ccccc12 | 38.3 | 10.3 | 3.7 | – |
| COc1ccc(CNC(=O)c2cc3c([nH]c4ccccc43)c(C(C)=O)n2)cc1 | > 50 | 16.8 | > 2.97 | – |
| CCCC(=O)c1nc(C(=O)NCCc2c[nH]c3ccccc23)cc2c1[nH]c1ccccc12 | > 50 | > 50 | – | – |

— ChEMBL document CHEMBL5380808, “Design, Synthesis, and Biological Activity of Marinacarboline Analogues as STAT3 Pathway Inhibitors for Docetaxel-Resistant Triple-Negative Breast Cancer” (J Med Chem, 2023)
